{"source": "paper PMC12621200", "about": "“Giving an Enzyme Scissors: Serotonin Derivatives as Potent Organocatalytic Switches for DNA Repair Enzyme OGG1” (Journal of Medicinal Chemistry, 2025)", "key": {"[1]": {"test": "Microsomal stability assay", "assay_type": "in vitro ADME, human", "conditions": "pH 7.4; human liver microsomes"}, "[2]": {"test": "Caco-2 permeability assay", "assay_type": "in vitro ADME", "conditions": "human, Caco-2, pH 7.4"}, "[3]": {"system": "panel of DNA glycosylases and NUDIX nucleotide binding proteins", "test": "Selectivity: lowest IC50 in glycosylase/NUDIX panel divided by OGG1 AC50", "assay_type": "biochemical", "conditions": "lowest IC50 against panel / OGG1 AC50"}, "[4]": {"test": "Microsomal stability assay", "assay_type": "in vitro ADME", "conditions": "pH 7.4; mouse liver microsomes"}, "[5]": {"target": "T1, OGG1 (Homo sapiens, UniProt O15527)", "T1 construct": "made in house", "T1 sequence (O15527 whole entry)": "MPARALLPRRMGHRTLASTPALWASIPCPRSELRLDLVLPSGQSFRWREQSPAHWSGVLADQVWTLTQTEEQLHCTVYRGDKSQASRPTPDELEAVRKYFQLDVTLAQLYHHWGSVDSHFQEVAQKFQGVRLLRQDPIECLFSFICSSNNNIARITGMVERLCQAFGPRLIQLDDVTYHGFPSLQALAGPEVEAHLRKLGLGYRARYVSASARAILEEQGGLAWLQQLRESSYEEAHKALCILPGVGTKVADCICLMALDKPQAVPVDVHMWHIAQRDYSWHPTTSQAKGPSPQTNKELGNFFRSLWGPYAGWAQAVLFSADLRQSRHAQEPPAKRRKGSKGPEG", "test": "Biochemical fluorescence (fluorophore-quencher) assay of OGG1 incision rate, 8-oxoA substrate"}, "[6]": {"system": "BJ-RAS and BJ-TERT cell lines", "test": "Resazurin cell viability assay for toxicity testing", "assay_type": "cell-based"}, "[7]": {"test": "Kinetic solubility assay in PBS", "assay_type": "physicochemical", "conditions": "phosphate-buffered saline, 25 °C, aqueous buffer, kinetic from dmso stock; kinetic solubility in PBS buffer (pH 7.4); read-out: aq. solubility"}, "[8]": {"target": "T1, OGG1", "test": "NaBH4 Schiff-base trapping assay", "assay_type": "biochemical", "conditions": "AP or 8-oxoG DNA substrates; 6.25 μM TH10785, 6.25 μM 30, 10 μM 38"}, "[9]": {"target": "T1, OGG1", "test": "hOGG1 activity assay on radiolabeled 8-oxoG-containing oligonucleotide (urea-PAGE)", "assay_type": "biochemical"}, "[10]": {"system": "activated peripheral blood mononuclear cells (human T cells)", "test": "Activated peripheral blood mononuclear cell proliferation assay", "assay_type": "cell-based"}, "[11]": {"conditions": "basic nitrogen; cited from earlier work"}}, "note": "“Also recorded” adds a separate entry of the source."}
{"smiles": "c1ccc2c(NC3CCCCC3)nc(C3CC3)nc2c1", "note": "[TH10785, reference compound]", "values": [{"measurement": "microsomal CLint at 2 μM", "setting": "[1]", "value": 18, "unit": "µL/min/mg"}, {"measurement": "Papp A→B at 90 min, 10 µM", "setting": "[2]", "value": 1.5, "unit": "×10⁻⁶ cm/s"}, {"measurement": "Papp B→A at 90 min, 10 µM", "setting": "[2]", "value": 4.9, "unit": "×10⁻⁶ cm/s"}, {"measurement": "efflux ratio at 90 min, 10 μM", "setting": "[2]; P app (B to A) / P app (A to B)", "value": 3.3}, {"measurement": "selectivity", "setting": "[3]", "value": ">120-fold"}, {"measurement": "microsomal CLint at 2 μM", "setting": "[4]", "value": 347, "unit": "µL/min/mg"}, {"measurement": "AcLE", "setting": "[5]; (1.37/#heavy atoms) × pAC50", "value": 0.419}, {"measurement": "AC50", "setting": "[5]; concentration giving 50% of the incision rate of OGG1 with APE1 (2 nM) control, read-out: AC50 (CI95%)", "value": 870, "unit": "nM"}, {"measurement": "AcLLE", "setting": "[5]; pAC50 – clogP", "value": 1.57}, {"measurement": "toxicity in words", "setting": "[6]; BJ-TERT and BJ-RAS cells, 30 at 100 μM over several days", "value": "some toxicity"}, {"measurement": "toxicity", "setting": "[6]; incubation in BJ-RAS and BJ-TERT cell lines", "value": "> 18", "unit": "µM"}, {"measurement": "solubility at 2 h", "setting": "[7]", "value": 6, "unit": "µM"}, {"measurement": "effect on level of cross-linked product (Schiff-base formation)", "setting": "[8]", "value": "no discernible effect"}, {"measurement": "stimulation of OGG1 AP lyase activity (incised substrate after 4 min)", "setting": "[9]; 6.25 μM TH10785, 6.25 μM 30, 10 μM 38, 10 nM hOGG1", "value": "Stimulation of OGG1 AP lyase activity was observed"}, {"measurement": "incision mode", "setting": "[9]; elimination products of AP-site cleavage", "value": "both β and β,δ-elimination products and β,δ"}, {"measurement": "effect on proliferation", "setting": "[10]; CD3/CD28/IL-2 activated cells, 96 h", "value": "suppresses proliferation in a dose-dependent manner at 10 and 20 μM; also recorded: inhibits proliferation"}, {"measurement": "toxicity", "setting": "[10]; value obtained using PBMCs", "value": 20, "unit": "µM"}, {"measurement": "pK a", "setting": "[11]", "value": "≈ 6.55"}]}
